Measured values taken from US20200239530A1, “COMPOUNDS AND METHODS OF MODULATING PROTEIN DEGRADATION” (Vividion Therapeutics, Inc., priority 2017, published 2020).

Key:
[1] = target: T1, BACH1 Transcription regulator protein BACH1 (Homo sapiens, UniProt O14867); assay: Cysteine liganding, probe competition; format: binding; conditions: for Liganded: BACH1 Res# 224, uniprot O14867
T1 construct: Cells were resuspended in cold PBS on ice and sonicated with a probe sonicator to achieve lysis; endogenous in cells
T1 sequence (O14867 1-736): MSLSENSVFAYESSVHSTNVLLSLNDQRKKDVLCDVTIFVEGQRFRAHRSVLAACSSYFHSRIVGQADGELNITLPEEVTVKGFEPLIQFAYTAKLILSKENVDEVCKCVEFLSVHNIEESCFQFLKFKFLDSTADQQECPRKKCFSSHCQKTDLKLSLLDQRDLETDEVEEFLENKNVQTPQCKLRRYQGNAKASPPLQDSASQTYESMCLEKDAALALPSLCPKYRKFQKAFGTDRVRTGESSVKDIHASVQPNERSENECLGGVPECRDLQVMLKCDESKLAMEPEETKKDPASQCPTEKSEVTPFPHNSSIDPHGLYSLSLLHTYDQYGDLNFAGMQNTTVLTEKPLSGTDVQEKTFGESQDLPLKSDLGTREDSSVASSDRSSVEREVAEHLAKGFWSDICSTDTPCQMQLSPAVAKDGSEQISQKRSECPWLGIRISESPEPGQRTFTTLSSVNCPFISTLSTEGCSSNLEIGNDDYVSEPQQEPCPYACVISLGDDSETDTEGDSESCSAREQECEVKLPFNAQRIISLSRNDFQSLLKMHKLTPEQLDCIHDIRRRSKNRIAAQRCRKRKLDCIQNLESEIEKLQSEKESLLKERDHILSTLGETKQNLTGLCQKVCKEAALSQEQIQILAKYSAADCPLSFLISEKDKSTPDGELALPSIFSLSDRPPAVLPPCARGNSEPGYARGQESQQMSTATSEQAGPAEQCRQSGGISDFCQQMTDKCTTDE
Procedure, shortened: (§1)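 Read-out is loss of desthiobiotin iodoacetamide labelling at cysteines, measured on streptavidin-enriched tryptic peptides. Compound preincubation ran 1 hr at 25° C in PBS lysate holding 5 mg/ml proteome before the probe was added.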

[2] = target: T2, DDX50 ATP-dependent RNA helicase DDX50 (Homo sapiens, UniProt Q9BQ39); assay: Cysteine liganding, probe competition; format: binding
T2 construct: 200 μL of lysate containing 5 mg/ml proteome was treated with 2 μL of 100× compound stock; endogenous in cells
T2 sequence (Q9BQ39 1-737): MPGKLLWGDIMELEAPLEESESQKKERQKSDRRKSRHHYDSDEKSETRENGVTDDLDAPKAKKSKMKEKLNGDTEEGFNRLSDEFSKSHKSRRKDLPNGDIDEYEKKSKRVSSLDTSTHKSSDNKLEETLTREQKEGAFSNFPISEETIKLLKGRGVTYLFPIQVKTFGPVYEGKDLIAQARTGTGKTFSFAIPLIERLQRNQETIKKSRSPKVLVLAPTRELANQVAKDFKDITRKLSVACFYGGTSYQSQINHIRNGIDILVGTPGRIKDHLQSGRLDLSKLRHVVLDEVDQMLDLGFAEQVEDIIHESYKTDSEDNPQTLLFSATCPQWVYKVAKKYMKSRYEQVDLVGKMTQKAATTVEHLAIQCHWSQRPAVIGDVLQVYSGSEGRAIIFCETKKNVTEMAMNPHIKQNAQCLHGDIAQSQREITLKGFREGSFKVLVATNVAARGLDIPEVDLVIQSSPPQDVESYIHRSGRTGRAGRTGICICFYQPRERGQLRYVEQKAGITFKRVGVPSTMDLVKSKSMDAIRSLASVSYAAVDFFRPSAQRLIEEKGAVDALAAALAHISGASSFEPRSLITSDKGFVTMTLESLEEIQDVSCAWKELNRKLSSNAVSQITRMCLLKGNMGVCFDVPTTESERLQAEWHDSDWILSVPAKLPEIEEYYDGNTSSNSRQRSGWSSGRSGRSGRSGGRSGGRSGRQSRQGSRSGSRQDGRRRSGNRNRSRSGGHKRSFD
Procedure, shortened: as §1

SMILES | Liganded [1] | Liganded ([2]; DDX50 Res# 603, uniprot Q9BQ39) | 100 Max ([1]; uniprot O14867) | 100 ave ([1]; uniprot O14867) | 500 Max ([1]; uniprot O14867) | 500 ave ([1]; uniprot O14867) | 100 Max ([2]; uniprot Q9BQ39) | 100 ave ([2]; uniprot Q9BQ39) | 500 Max ([2]; uniprot Q9BQ39) | 500 ave ([2]; uniprot Q9BQ39)
COc1ccc2c(c1)CCCN2C(=O)CCl [KB02] | YES | YES | – | – | – | – | – | – | – | –
O=C(CCl)Nc1cc(C(F)(F)F)cc(C(F)(F)F)c1 [KBO3] | YES | – | 53.8 | 53.8 | 85.3 | 85.3 | −9.62 | −13.925 | 28.63 | 22.82
